Reference: US8138171B2, “Dioxolane and dioxolanone fused indolobenzadiazepine HCV NS5B inhibitors” (Bristol-Myers Squibb Company, priority 2008, dated 2012)
Where two headings read alike, the source gives them in different places.

What was measured:
[1] = biological target: T1, HCV NS5B RdRp genotype 1b (Hepatitis C virus genotype 1b, UniProt P26663); assay: Modified HCV NS5B RdRp enzyme assay (preincubation protocol); format: biochemical
T1 construct: The protein was expressed with an 18 amino acid C-terminal truncation to enhance the solubility; made in house; host or cells: E. coli BL21(DE3), pET21a
T1 sequence (P26663 2420-2992): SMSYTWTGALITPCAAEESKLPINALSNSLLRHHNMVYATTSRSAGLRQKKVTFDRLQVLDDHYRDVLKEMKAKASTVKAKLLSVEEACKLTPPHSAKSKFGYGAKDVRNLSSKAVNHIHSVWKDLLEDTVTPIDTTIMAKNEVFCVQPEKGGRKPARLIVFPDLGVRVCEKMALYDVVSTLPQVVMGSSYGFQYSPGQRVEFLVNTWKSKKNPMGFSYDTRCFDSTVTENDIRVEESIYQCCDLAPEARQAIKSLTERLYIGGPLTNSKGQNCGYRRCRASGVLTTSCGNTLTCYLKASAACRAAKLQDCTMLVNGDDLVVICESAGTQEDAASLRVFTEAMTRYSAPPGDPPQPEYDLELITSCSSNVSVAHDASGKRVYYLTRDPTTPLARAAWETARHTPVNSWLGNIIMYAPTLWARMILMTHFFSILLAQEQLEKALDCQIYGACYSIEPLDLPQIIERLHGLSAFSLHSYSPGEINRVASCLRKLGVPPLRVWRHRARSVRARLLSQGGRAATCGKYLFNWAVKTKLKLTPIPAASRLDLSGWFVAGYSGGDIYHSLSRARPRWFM
Description: HCV NS5B RdRp cloning, expression, and purification. The cDNA encoding the NS5B protein of HCV, genotype 1b, was cloned into the pET21a expression vector. The protein was expressed with an 18 amino acid C-terminal truncation to enhance the solubility. The E. coli competent cell line BL21(DE3) was used for expression of the protein. Cultures were grown at 37° C. for ˜4 hours until the cultures reached an optical density of 2.0 at 600 nm. The cultures were cooled to 20° C. and induced with 1 mM IPTG. Fresh ampicillin was added to a final concentration of 50 μg/ml and the cells were grown overnight at 20° C.
Cell pellets (3 L) were lysed for purification to yield 15-24 […] of purified NS5B. The lysis buffer consisted of 20 mM Tris-HCl, pH 7.4, 500 mM NaCl, 0.5% triton X-100, 1 mM DTT, 1 mM EDTA, 20% glycerol, 0.5 mg/ml lysozyme, 10 mM MgCl2, 15 ug/ml deoxyribonuclease I, and Complete™ protease inhibitor tablets (Roche). After addition of the lysis buffer, frozen cell pellets were resuspended using a tissue homogenizer. To reduce the viscosity of the sample, aliquots of the lysate were sonicated on ice using a microtip attached to a Branson sonicator. The sonicated lysate was centrifuged at 100,000×g for 1 hr at 4° C. and filtered through a 0.2 μm filter unit (Corning).
The protein was purified using three sequential chromatography steps: Heparin sepharose CL-6B, polyU sepharose 4B, and Hitrap SP sepharose (Pharmacia). The chromatography buffers were identical to the lysis buffer but contained no lysozyme, deoxyribonuclease I, MgCl2 or protease inhibitor and the NaCl concentration of the buffer was adjusted according to the requirements for charging the protein onto the column. Each column was eluted with a NaCl gradient which varied in length from 5-50 column volumes depending on the column type. After the final chromatography step, the resulting purity of the enzyme is >90% based on SDS-PAGE analysis. The enzyme was aliquoted and stored at −80° C.
Standard HCV NS5B RdRp enzyme assay. HCV RdRp genotype 1b assays were run in a final volume of 60 μl in 96 well plates (Costar 3912). The assay buffer is composed of 20 mM Hepes, pH 7.5, 2.5 mM KCl, 2.5 mM MgCl2, 1 mM DTT, 1.6 U RNAse inhibitor (Promega N2515), 0.1 mg/ml BSA (Promega R3961), and 2% glycerol. All compounds were serially diluted (3-fold) in DMSO and diluted further in water such that the final concentration of DMSO in the assay was 2%. HCV RdRp genotype 1b enzyme was used at a final concentration of 28 nM. A polyA template was used at 6 nM, and a biotinylated oligo-dT12 primer was used at 180 nM final concentration. Template was obtained commercially (Amersham 27-4110). Biotinylated primer was prepared by Sigma Genosys. 3H-UTP was used at 0.6 μCi (0.29 μM total UTP). Reactions were initiated by the addition of enzyme, incubated at 30° C. for 60 min, and stopped by adding 25 μl of 50 mM EDTA containing SPA beads (4 μg/μl, Amersham RPNQ 0007). Plates were read on a Packard Top Count NXT after >1 hr incubation at room temperature.
Modified HCV NS5B RdRp enzyme assay. A modified enzyme assay was performed essentially as described for the standard enzyme assay except for the following: The biotinylated oligo dT12 primer was precaptured on streptavidin-coated SPA beads by mixing primer and beads in assay buffer and incubating at room temperature for one hour. Unbound primer was removed after centrifugation. The primer-bound beads were resuspended in 20 mM Hepes buffer, pH 7.5 and used in the assay at final concentrations of 20 nM primer and 0.67 μg/μl beads. Order of addition in the assay: enzyme (14 nM) was added to diluted compound followed by the addition of a mixture of template (0.2 nM), 3H-UTP (0.6 μCi, 0.29 μM), and primer-bound beads, to initiate the reaction; concentrations given are final. Reactions were allowed to proceed for 4 hours at 30° C.
IC50 values for compounds were determined using seven different. […]

HCV replicon cells = assay: HCV replicon FRET assay; format: cell-based; conditions: Hepatitis C virus
From the text: FRET Assay Preparation. To perform the HCV FRET screening assay, 96-well cell culture plates were used. The FRET peptide (Anaspec, Inc.) (Taliani et al., Anal. Biochem. 1996, 240, 60-67) contains a fluorescence donor, EDANS, near one end of the peptide and an acceptor, DABCYL, near the other end. The fluorescence of the peptide is quenched by […] resonance energy transfer (RET) between the donor and the acceptor, but as the NS3 protease cleaves the peptide the products are released from RET quenching and the fluorescence of the donor becomes apparent. The assay reagent was made as follows: 5× cell Luciferase cell culture lysis reagent from Promega (#E153A) diluted to 1× with dH2O, NaCl added to 150 mM final, the FRET peptide diluted to 20 uM final from a 2 mM stock.
To prepare plates, HCV replicon cells, with or without a Renilla luciferase reporter gene, were trypsinized and placed into each well of a 96-well plate with titrated test compounds added in columns 3 through 12; columns 1 and 2 contained a control compound (HCV protease inhibitor), and the bottom row contained cells without compound. The plates were then placed in a CO2 incubator at 37° C.
Assays. Subsequent to addition of the test compounds described above (FRET Assay Preparation), at various times the plate was removed and Alamar blue solution (Trek Diagnostics, #00-100) was added per well as a measure of cellular toxicity, After reading in a Cytoflour 4000 instrument (PE Biosystems), plates were rinsed with PBS and then used for FRET assay by the addition of 30 ul of the FRET peptide assay reagent described above (FRET Assay Preparation) per well. The plate was then placed into the Cytoflour 4000 instrument which had been set to 340 excite/490 emission, automatic mode for 20 cycles and the plate read in a kinetic mode. Typically, the signal to noise using an endpoint analysis after the reads was at least three-fold. Alternatively, after Alamar blue reading, plates were rinsed with PBS, 50 ul of DMEM (high glucose) without phenol red was added and plates were then used for luciferase assay using the Promega Dual-Glo Luciferase Assay System.
Compound analysis was determined by quantification of the relative HCV replicon inhibition and the relative cytotoxicity values. To calculate cytoxicity values, the average Alamar Blue fluorescence signals from the control wells were set as 100% non-toxic. The individual signals in each of the compound test wells were then divided by the average control signal and multiplied by 100% to determine […]. To calculate the HCV replicon inhibition values, an average background value was obtained from the two wells containing the highest amount of HCV protease inhibitor at the end of the assay period. These numbers were similar to those obtained from naive Huh-7 cells.
The background numbers were then subtracted from the average signal obtained from the control wells and this number was used as 100% activity. The individual signals in each of the compound test wells were then divided by the averaged control values after background subtraction and multiplied by 100% to determine percent activity. EC50 values for a protease inhibitor titration were calculated as the concentration which caused a 50% reduction in FRET or luciferase activity. The two numbers generated for the compound plate, percent cytoxicity and percent activity were used to determine compounds of interest for further analysis.

[2] = HCV NS5B RdRp genotype 1b, preincubation protocol, read-out: IC50
[3] = HCV replicon cells, FRET assay, read-out: EC50

| SMILES | IC50 [1] | EC50 (HCV replicon cells) | IC50 [1, 2] | EC50 (HCV replicon cells; [3]) |
| --- | --- | --- | --- | --- |
| COc1ccc2c(c1)[C@@H]1OCO[C@]1(C(=O)N1C3CCC1CN(C)C3)Cn1c-2c(C2CCCCC2)c2ccc(C(=O)NS(=O)(=O)N(C)C)cc21 (racemic) [Example 6, rac-(3aR,14bS)-10-Cyclohexyl-N-((dimethylamino)sulfonyl)-3a-((3-methyl-3,8-diazabicyclo[3.2.1]oct-8-yl)carbonyl)-13-(methyloxy)-3a,14b-dihydro-4H-[1,3]dioxolo[4,5-d]indolo[2,1-a][2]benzazepine-7-carboxamid] | 0.43 µM | 0.14 µM | – | – |
| COc1ccc2c(c1)[C@@H]1OC(C)(C)O[C@]1(C(=O)N(C)CCN(C)C)Cn1c-2c(C2CCCCC2)c2ccc(C(=O)NS(=O)(=O)N(C)C)cc21 (racemic) [Example 1, rac-(3aR,14bS)-10-Cyclohexyl-N^3a-(2-(dimethylamino)ethyl)-N^7-((dimethylamino)sulfonyl)-N^3a,2,2-trimethyl-13-(methyloxy)-4H-[1,3]dioxolo[4,5-d]indolo[2,1-a][2]benzazepine-3a,7(14bH)-dicarboxamide] | – | – | 0.17 µM | 0.13 µM |
| COc1ccc2c(c1)[C@@H]1OC(=O)O[C@]1(C(=O)N1C3CCC1CN(C)C3)Cn1c-2c(C2CCCCC2)c2ccc(C(=O)NS(=O)(=O)N(C)C)cc21 (racemic) [Example 4, rac-(3aR,14bS)-10-Cyclohexyl-N-((dimethylamino)sulfonyl)-3a-((3-methyl-3,8-diazabicyclo[3.2.1]oct-8-yl)carbonyl)-13-(methyloxy)-2-oxo-3a,14b-dihydro-4H-[1,3]dioxolo[4,5-d]indolo[2,1-a][2]benzazepine-7-carboxamid] | 0.091 µM | 0.1 µM | – | – |
| COc1ccc2c(c1)[C@@H]1OC(=O)O[C@]1(C(=O)N1C[C@@H](C)O[C@@H](C)C1)Cn1c-2c(C2CCCCC2)c2ccc(C(=O)NS(=O)(=O)N(C)C)cc21 (racemic) [Example 2, rac-(3aR,14bS)-10-Cyclohexyl-N-((dimethylamino)sulfonyl)-3a4(2R,6S)-2,6-dimethyl-4-morpholinyl)carbonyl)-13-(methyloxy)-2-oxo-3a,14b-dihydro-4H-[1,3]diaxolo[4,5-d]indolo[2,1-a][2]benzazepine-7-carboxamide] | – | – | 0.033 µM | 0.059 µM |
| COc1ccc2c(c1)[C@@H]1OC(C)(C)O[C@]1(C(=O)N1C[C@@H](C)O[C@@H](C)C1)Cn1c-2c(C2CCCCC2)c2ccc(C(=O)NS(=O)(=O)N(C)C)cc21 (racemic) [Example 3, rac-(3aR,14bS)-10-Cyclohexyl-N-((dimethylamino)sulfonyl)-3a-(((2R,6S)-2,6-dimethyl-4-morpholinyl)carbonyl)-2,2-dimethyl-13-(methyloxy)-3a,14b-dihydro-4H-[1,3]dioxolo[4,5-d]indolo[2,1-a][2]benzazepine-7-carboxamide] | – | 0.17 µM | 0.11 µM | – |
| COc1ccc2c(c1)[C@@H]1OC(C)(C)O[C@]1(C(=O)N1C3CCC1CN(C)C3)Cn1c-2c(C2CCCCC2)c2ccc(C(=O)NS(=O)(=O)N(C)C)cc21 (racemic) [Example 5, rac-(3aR,4bS)-10-Cyclohexyl-N-((dimethylamino)sulfonyl)-2,2-dimethyl-3a-((3-methyl-3,8-diazabicyclo[3.2.1]oct-8-yl)carbonyl)-13-(methyloxy)-3a,14b-dihydro-4H-[1,3]dioxolo[4,5-d]indolo[2,1-a][2]benzazepine-7-carboxamid] | 0.59 µM | 0.14 µM | – | – |
